These results are taken from patent US20100098791A1, “COMPOSITION FOR TREATING XEROSTOMIA OR DRY MOUTH” (priority 2007, published 2010).

The nature of the test: Dentin loss under extreme erosion conditions, composition versus its three ingredients separately (Example 8). The arrangement: species or system cow. Particulars: 10 cycles: 5 min pre-treatment, 1% citric acid pH 2.3 for 3 min. As for the experimental part:
The protective capacity of a mouthwash formulated with olive oil, trimethylglycine and xylitol in dentin subjected to extreme erosion conditions was analysed, compared to that of aqueous solutions of the three ingredients separately in the same concentrations used in the mouthwash tested. For the evaluation of effects a control was included consisting of distilled water.
Incisive teeth extracted from a cow's jaw were used, which were immersed in a 0.5% thymol solution at room temperature. The teeth were sectioned at the cementum-enamel junction by means of a water-cooled diamond scalpel (Exakt, Norderstedt, Germany), and the crowns and roots were embedded in acrylic resin cylinders (Paladur, Heraeus Kulzer, Wehrheim, Germany). Radicular cementum was completely eliminated. […]
Dentin loss was quantified performing profile or profilometric measurements (Mahr Perthometer, Göttingen, Germany). […] After the experiment the adhesive tapes were removed and the samples were analysed again. The average depth of the eroded surfaces was thus calculated with respect to basic surface profiles by means of specific software (Mahr Perthometer Concept 7.0, Mahr, Göttingen, Germany).
Dentin loss was calculated (mean±standard deviation) for each group and statistically analysed by Student's t test followed by Bonferroni's t test for multiple comparisons (Statistica 6.0, Statsoft, Tulsa, USA).

With `OC[C@@H](O)[C@H](O)[C@@H](O)CO` [1% xylitol solution, xylitol], the “protective effect on dentin against erosion” value is given as “did not demonstrate any protective effect”.
On to `C[N+](C)(C)CC(=O)[O-]` [2% trimethylglycine solution, trimethylglycine], for which the “protective effect on dentin against erosion” value is given as “did not demonstrate any protective effect”.
